Data published in US4645747A, “Specific binding assay technique” (priority 1979, dated 1987).
Read-outs that look alike come from different tables or passages of the source.

Key:
[1] = test system: phenobarbitone antiserum R-66X; test: Phenobarbitone RIA with solvent extraction (Example 6); assay type: binding; details: mean of duplicates; for % B/Bo MIBK: methyl isobutyl ketone; for % B/Bo TBME: tert-butyl methyl ether
Method: The components used for a phenobarbitone RIA were a (^3 H) phenobarbitone tracer (N.E.N), a phenobarbitone antiserum R-66X (Technion) and tris-maleate assay buffer (pH 7.3, 0.078M Tris, 0.035M maleic acid) containing 0.1% PVP (polyvinyl pyrrolidone).
The tracrer, 100 μl (approx. 10 nono Ci/tube) was added to test-tubes followed by the addition of 50 μl phenobarbitone standards and 100 μl of diluted antiserum. All test-tubes were incubated overnight at 4° C. After incubation, 0.5 ml of solvent (tert-butyl methyl ether, TBME in one experiment and, MIBK in a parallel experiment) were added to each assay tube and vortexed for 20-30 seconds. After phase separation on standing, the aqueous phase was transferred to scintillation vials for radioactivity determination. The following Table 4, summarizes mean values (of duplicates) expressed as % B/Bo.

[2] = assay type: physicochemical; details: for % Estriol extracted, Tracer only: ^125I estriol, no unlabelled estriol; for % Estriol extracted, with 250 ng/ml: with 250 ng/ml unlabelled estriol
Description: The choice of the preferred solvent for each system is made by carrying out a simple experiment in each case as illustrated hereinafter.

[3] = cited from earlier work
[4] = test system: anti-THC antiserum, R-41Va; test: THC RIA with solvent extraction or charcoal separation (Example 7); assay type: binding; details: for % B/Bo Charcoal: dextran-coated charcoal
Method: An assay using the solvent extraction method was developed for tetrahydrocannabinol (THC) metabolites using a (^3 H)-THC tracer (Amersham). All assay components were prepared in tris-maleate buffer (pH 7.3) containing 0.2% PVP and 0.1% Triton X450 (trademark of Rohm and Haas). […]. The solvent, 500 μl, was added to the assay tubes and vortexed for 20-30 seconds. […]. The following Table 5 summarizes the results, expressed as % B/Bo for the three experiments.

[5] = test system: RIA kit for estradiol; test: Estradiol 17β (^3H) RIA, kit protocol vs solvent extraction (Example 5); assay type: binding; details: for % B/Bo Expt. A (kit): kit protocol; for % B/Bo Expt. B (solvent extn.): solvent extraction
Method: A commercially available (^3 H) RIA kit for estradiol supplied by Isopac was tested by the solvent extraction method as follows:
All kit components were prepared according to kit directions. One experiment (A) was carried out exactly according to the kit protocol. A second, parallel experiment (B) was performed according to kit protocol up to, and including, the incubation step. […] After phase separation (about 10 minutes) the upper solvent phase, containing the free estradiol, was transferred to scintillation vials to which 5 ml of scintillation liquid (Instagel II, trademark of Packard) were added and the radioactivity determined.

For `CCC1(c2ccccc2)C(=O)NC(=O)NC1=O` [Phenobarbitone, phenobarbitone], the “% B/Bo MIBK” value ([1]; standard 5 ng/ml) was 73.0%, the “% B/Bo TBME” value ([1]; standard 5 ng/ml) was 96.5% and the “% B/Bo MIBK” value ([1]; standard 10 ng/ml) was 63.0%. The “% B/Bo TBME” value ([1]; standard 10 ng/ml) was 79.0%, the “% B/Bo MIBK” value ([1]; standard 25 ng/ml) was 45.0% and the “% B/Bo TBME” value ([1]; standard 25 ng/ml) was 52.0%. For the same compound, the “% B/Bo MIBK” value ([1]; standard 50 ng/ml) was 30.0%, the “% B/Bo TBME” value ([1]; standard 50 ng/ml) was 30.0% and the “% B/Bo MIBK” value ([1]; standard 100 ng/ml) was 19.0%. For the same compound, the “% B/Bo TBME” value ([1]; standard 100 ng/ml) was 23.0%.

For `ClC(Cl)(Cl)Cl` [Carbon tetrachloride, carbon tetrachloride], the “% Estriol extracted, Tracer only” value [2] is listed as 35-38%, the “% Estriol extracted, with 250 ng/ml” value [2] is listed as 38-40% and the “% solubility in water” value ([3]; in water) is listed as 0.08%.

With `CCCCCc1cc(O)c2c(c1)OC(C)(C)[C@@H]1CCC(C)=C[C@@H]21` [THC, tetrahydrocannabinol] the “% B/Bo MIBK” value ([4]; standard 1 ng/ml) was 98%, the “% B/Bo Charcoal” value ([4]; standard 1 ng/ml) was 98% and the “% B/Bo t-amyl alcohol” value ([4]; standard 1 ng/ml) was 90%. For the same compound, the “% B/Bo MIBK” value ([4]; standard 2 ng/ml) was 84%, the “% B/Bo t-amyl alcohol” value ([4]; standard 2 ng/ml) was 86% and the “% B/Bo MIBK” value ([4]; standard 4 ng/ml) was 68%. The “% B/Bo Charcoal” value ([4]; standard 4 ng/ml) was 86%, the “% B/Bo t-amyl alcohol” value ([4]; standard 4 ng/ml) was 77% and the “% B/Bo MIBK” value ([4]; standard 10 ng/ml) was 30%. The “% B/Bo Charcoal” value ([4]; standard 10 ng/ml) was 55%, the “% B/Bo t-amyl alcohol” value ([4]; standard 10 ng/ml) was 36% and the “% B/Bo MIBK” value ([4]; standard 20 ng/ml) was 18%. For the same compound, the “% B/Bo Charcoal” value ([4]; standard 20 ng/ml) was 32%, the “% B/Bo t-amyl alcohol” value ([4]; standard 20 ng/ml) was 15% and the “% B/Bo MIBK” value ([4]; standard 40 ng/ml) was 8%. For the same compound, the “% B/Bo Charcoal” value ([4]; standard 40 ng/ml) was 21% and the “% B/Bo t-amyl alcohol” value ([4]; standard 40 ng/ml) was 6%.

With `CCN(CC)CC` [Triethyl amine] the “% Estriol extracted, Tracer only” value [2] was 86-91% and the “% Estriol extracted, with 250 ng/ml” value [2] was 86-90%.

For `ClCc1ccccc1` [Benzyl chloride], the “% Estriol extracted, Tracer only” value [2] is listed as 78-80%, the “% Estriol extracted, with 250 ng/ml” value [2] is listed as 76-78% and the “% solubility in water” value ([3]; in water) is listed as 0.05%.

In the case of `CCOC(C)=O` [Ethyl acetate, ethyl acetate], the “% Estriol extracted, Tracer only” value [2] is listed as 90-94%, the “% Estriol extracted, with 250 ng/ml” value [2] is listed as 90-92% and the “% solubility in water” value ([3]; in water) is listed as 3.3%.

In the case of `C[C@]12CC[C@@H]3c4ccc(O)cc4CC[C@H]3[C@@H]1CC[C@@H]2O` [Estradiol, Estradiol 17β], the “% B/Bo Expt. A (kit)” value ([5]; standard 25.0 pg/ml) is reported as 89.0%, the “% B/Bo Expt. B (solvent extn.)” value ([5]; standard 25.0 pg/ml) is reported as 89.0% and the “% B/Bo Expt. A (kit)” value ([5]; standard 50.0 pg/ml) is reported as 85.0%. For the same compound, the “% B/Bo Expt. B (solvent extn.)” value ([5]; standard 50.0 pg/ml) was 76.0%, the “% B/Bo Expt. A (kit)” value ([5]; standard 100.0 pg/ml) was 59.0% and the “% B/Bo Expt. B (solvent extn.)” value ([5]; standard 100.0 pg/ml) was 40.0%. For the same compound, the “% B/Bo Expt. A (kit)” value ([5]; standard 200.0 pg/ml) was 40.0%, the “% B/Bo Expt. B (solvent extn.)” value ([5]; standard 200.0 pg/ml) was 23.0% and the “% B/Bo Expt. A (kit)” value ([5]; standard 400.0 pg/ml) was 21.0%. For the same compound, the “% B/Bo Expt. B (solvent extn.)” value ([5]; standard 400.0 pg/ml) was 14.0%.

For `ClCCl` [Dichloromethane, dichloromethane], the “% Estriol extracted, Tracer only” value [2] is listed as 45-47% and the “% solubility in water” value ([3]; water) is listed as 2%.

For `CC(=O)CC(C)C` [Methyl isobutyl ketone, methyl isobutyl ketone], the “% Estriol extracted, Tracer only” value [2] is listed as 91-94%, the “% Estriol extracted, with 250 ng/ml” value [2] is listed as 90-94% and the “% solubility in water” value ([3]; in water) is listed as 1.9%.
